Common to all, as to assay type: in vivo
Assay [1] relates to calamondin (Citrus madurensis). As to the kind of experiment: Leaf drop of calamondin after canopy spray with agonists alone or in combination with Ethrel. The conditions noted are these: 7 days after application. As for the experimental part:
(§1) A solution of an α2-adrenergic agonist was prepared. The solution contained 0.25 to 2 mM of agonist dissolved in water containing an appropriate surfactant. Ethrel® (2-chloroethyl phosphonic acid), an abscission agent, was added at a concentration that causes fruit loosening (in the case of citrus, 100 to 400 mg/L, depending on the variety). The solution was sprayed onto a tree canopy until “run-off,” typically about 2.5 liters per 15 foot tree. […] Under field conditions the canopies were not sprayed with the agonist-containing solutions if rainfall was anticipated within 24 hours. A positive control, containing a suitable concentration of Ethrel® or other abscission agent, as well as an agonist and surfactant control were sprayed on separate canopies. After several days, usually 3 to 10, differences in leaf drop were measured by counting or weighing dropped leaves. Fruit detachment force (FDF, a measurement defined as the force required to remove fruit from the tree stem) was measured in all treatments.
(§2) Kinetic® was used as a surfactant. Leaf drop data are leaf loss means of 3 branches times 10 trees, 7 days after application. FDF data are means of 5 fruit times 10 trees, 5 days after application.

For assay [2], the system named is calamondin (Citrus madurensis). Briefly: Fruit detachment force (FDF) of calamondin after canopy spray with agonists alone or in combination with Ethrel. The conditions noted are these: 5 days after application. The procedure:
as §1, §2

The test system of assay [3] is Valencia orange (Citrus sinensis). Briefly: Leaf drop of Valencia orange, clonidine alone or in combination with Ethrel. The conditions noted are these: 7 days after application. The procedure:
as §1
Kinetic® was used as a surfactant. Data are the leaf loss means of 3 branches times 5 trees, 7 days after application.

The next assay relates to Valencia orange. Briefly: Leaf drop of Valencia orange, Ethrel, coronatine, coronatine+guanfacine. The conditions noted are these: 10 days after application. As for the experimental part:
The effect of Ethrel, coronatine, coronatine+guanfacine, and adjuvant alone on % cumulative leaf drop in Valencia orange was tested. The data reported in Table 3 are means of 3 branches times 5 trees, 10 days after application.

Setting [4] is: agonist 1 mM + Ethrel 400 mg/L, Kinetic surfactant.
The mark [5] stands for this setting: agonist 1 mM alone, Kinetic surfactant.
The mark [6] stands for this setting: Ethrel 400 mg/L alone (positive control).
[7] abbreviates: agonist 0.5 mM + Ethrel 400 mg/L, Kinetic surfactant.
[8] abbreviates: agonist 0.5 mM alone, Kinetic surfactant.

`Clc1cccc(Cl)c1N=C1NCCN1` [Clonidine, clonidine]: the “% Cumulative Leaf Drop” value came to 13.4% in assay [1] (setting [4]); 5.8% in assay [1] (setting [5]); 6.1% in assay [3] (1 mM clonidine + Ethrel 100 mg/L); 14.3% in assay [3] (1 mM clonidine + Ethrel 200 mg/L); 2.7% in assay [3] (1 mM clonidine alone); 7.0% in assay [3] (2 mM clonidine + Ethrel 100 mg/L). Further, the entries for the “% Cumulative Leaf Drop” value in assay [3] (2 mM clonidine + Ethrel 200 mg/L) and in assay [3] (2 mM clonidine alone) were 15.1% and 3.2%, respectively. Also, the “% Reduction in FDF” value in assay [2] (setting [4]) was 40.5%; in assay [2] (setting [5]), 0.5%.
For the compound `O=P(O)(O)CCCl` [Ethrel ®, 2-chloroethyl phosphonic acid], the “% Cumulative Leaf Drop” value in assay [1] (setting [6]) stood at 68.3%; in assay [3] (Ethrel 100 mg/L alone), 19.1%; in assay [3] (Ethrel 200 mg/L alone), 43.8%; in the assay on Valencia orange (Ethrel 200 mg/L alone), 49.23%. The “% Reduction in FDF” value in assay [2] (setting [6]) is 41.6%.
For the compound `N=C(N)N/N=C/c1c(Cl)cccc1Cl` [Guanabenz, guanabenz], the “% Cumulative Leaf Drop” value in assay [1] (setting [4]) amounted to 14.1%; in assay [1] (setting [5]) it was 5.9%. Moreover, the “% Reduction in FDF” value in assay [2] (setting [4]) was found to be 34.6%; in assay [2] (setting [5]) it was 1.0%.
Take `N=C(N)NC(=O)Cc1c(Cl)cccc1Cl` [Guanafacine, guanfacine]: the “% Cumulative Leaf Drop” value was 4.8% in assay [1] (setting [4]), 6.5% in assay [1] (setting [5]) and 3.07% in the assay with Valencia orange (2 mM guanfacine + coronatine 200 mg/L). For the same compound, the entries for the “% Reduction in FDF” value in assay [2] (setting [4]) and in assay [2] (setting [5]) were 34.8% and 1.0%, respectively.
Regarding `Brc1c(NC2=NCCN2)ccc2nccnc12` [UK14,304, Brimonidine], the entries for the “% Cumulative Leaf Drop” value in assay [1] (setting [7]) and in assay [1] (setting [8]) were 15.6% and 6.0%, respectively. Moreover, the “% Reduction in FDF” value in assay [2] (setting [7]) was found to be 33.4%; in assay [2] (setting [8]), 1.2%.
As for `CC[C@H]1C=C(C(=O)N[C@@]2(C(=O)O)C[C@@H]2CC)[C@H]2CCC(=O)[C@H]2C1` [coronatine], the “% Cumulative Leaf Drop” value with Valencia orange (coronatine 200 mg/L alone) worked out at 12.56%.

Source of the values: patent US20020183205A1, “Use of alpha2-adrenergic receptor agonists and adrenergic inhibitors in reducing defoliation” (priority 2001, published 2002).
